In one assay the test system is Escherichia coli. Kind of assay: Antimicrobial activity against Escherichia coli ATCC 9637 at 100 mcg/mL by agar dilution-streak method. Format: functional, organism-based. For orientation: In agar dilution, organisms are placed on agar that contains the substance at set levels.
Assay [1] deals with Salmonella enterica subsp. enterica serovar Gallinarum. Kind of assay: Antimicrobial activity against Salmonella gallinarum ATCC 9184 at 100 mcg/mL by agar dilution-streak method. Format: functional, organism-based.
The subject of assay [2] is Mycolicibacterium smegmatis. Kind of assay: Antimicrobial activity against Mycobacterium smegmatis ATCC 607 by agar dilution-streak method. The assay is classed as functional.
In assay [3] the test system is Klebsiella pneumoniae. Nature of the assay: Antimicrobial activity against Klebsiella pneumoniae ATCC 10031 by agar dilution-streak method. The assay is classed as functional.
The subject of assay [4] is Staphylococcus aureus. Kind of assay: Antimicrobial activity against Staphylococcus aureus ATCC 13709 by agar dilution-streak method. Format: functional.
Assay [5] relates to Candida albicans. Nature of the assay: Antimicrobial activity against Candida albicans ATCC 10231 by agar dilution-streak method. Format: functional.
Assay [6] relates to Candida albicans. Nature of the assay: Antimicrobial activity against Candida albicans ATCC 10231 at 100 mcg/mL by agar dilution-streak method. Format: functional, organism-based.
Assay [7] relates to Staphylococcus aureus. Kind of assay: Antimicrobial activity against Staphylococcus aureus ATCC 13709 at 100 mcg/mL by agar dilution-streak method. Format: functional, organism-based.
The subject of assay [8] is Klebsiella pneumoniae. Nature of the assay: Antimicrobial activity against Klebsiella pneumoniae ATCC 10031 at 100 mcg/mL by agar dilution-streak method. Format: functional, organism-based.
Assay [9] relates to Mycolicibacterium smegmatis. Nature of the assay: Antimicrobial activity against Mycobacterium smegmatis ATCC 607 at 100 mcg/mL by agar dilution-streak method. The assay is classed as functional, organism-based.

Each structure is given as a SMILES string. Calls of active or inactive are those of the source. The rule behind the calls is not given here.

For the molecule `COc1c2ccc(-c3ccccc3)oc-2cc(=O)c1C` [DRACORHODIN], the outcome (in the assay with Escherichia coli; in assay [1]) was inactive. The Activity in assay [2] came out at 25 µg/mL; with Klebsiella pneumoniae [3] it was 100 µg/mL; with Staphylococcus aureus [4], 50 µg/mL; in the assay on Candida albicans [5], 25 µg/mL.

In the case of `COc1cc2oc3cc(=O)cc4oc(-c5ccccc5)cc(c2c2c1CC[C@@H](c1ccccc1)O2)c43`, the result (in the assay on Escherichia coli; in [1]; in the assay with Candida albicans [6]; with Staphylococcus aureus [7]; in the assay with Klebsiella pneumoniae [8]; in [9]) was inactive.

As to `COc1cc(=O)cc2oc(-c3ccccc3)ccc1-2`, the outcome (with Escherichia coli; in [1]; in the assay on Candida albicans [6]; with Staphylococcus aureus [7]; in the assay on Klebsiella pneumoniae [8]; in assay [9]) was inactive.

For `COc1cc(O)cc2c1CC[C@H](c1ccccc1)O2`, the outcome (with Escherichia coli; in [1]; in the assay with Candida albicans [6]; in the assay with Staphylococcus aureus [7]; in the assay on Klebsiella pneumoniae [8]; in assay [9]) was inactive.

Take `COc1cc2oc3c(C)c(=O)cc4oc(-c5ccccc5)cc(c2c2c1CC[C@@H](c1ccccc1)O2)c43` [DRACORUBIN]: the result (in the assay with Escherichia coli; in assay [1]; in the assay on Klebsiella pneumoniae [8]) was inactive. Further, the results for the Activity (in [2]; in the assay on Staphylococcus aureus [4]; with Candida albicans [5]) were 25 µg/mL, 50 µg/mL and 12.5 µg/mL, respectively.
